Assay results as given in patent US5693620A, “Plasmalopsychosines and plasmalocerebrosides” (Oncomembrane, Inc., priority 1994, dated 1997).
“Also recorded” adds a separate entry of the source. Values belong to the compound of their own block, whether it stands above or below them.

Tests used:
[1] = test system: mouse neuroblastoma Neuro-2A cells; settings: previously reported for a ganglioside effect; cited from earlier work
[2] = Cytotoxicity and growth inhibition in neuroblastoma cell lines; type: cell-based; settings: various neuroblastoma cell lines; read-out: concentration at which cell growth was inhibited, morphology changed and cells eventually died
neuroblastoma cell lines = assay: as above; type: cell-based; settings: various neuroblastoma cell lines
[3] = Acid lability of glycolipids (aqueous HCl/methanol, TLC mobility); type: physicochemical; settings: methanol-aqueous 0.1N HCl 1:1, 90° C., 10 min
Description: Acid-labile glycolipids were detected by hydrolysis of samples in methanol-aqueous 0.1N HCl (1:1, v/v) heated at 90° C. for 10 min, followed by Folch partitioning and TLC examination of lower phase. The glycolipid with high TLC mobility converting to the same mobility as normal cerebroside by this treatment was regarded as the acid-labile cerebroside.

Compound: GT1b
- concentration required for ganglioside effect on neurite formation [1]: 200 µg/mL

Compound: CCCCCCCCCCCCC/C=C/[C@@H](O)[C@@H](N)CO[C@@H]1O[C@H](CO)[C@H](O)[C@H](O)[C@H]1O [psychosine, galactosylsphingosine]
- MCC [2]: 10 to 20 µg/mL
- cytotoxic effect / growth inhibition (in words) (neuroblastoma cell lines): strong cytotoxic effect; also recorded: cytotoxic effects and inhibited cell growth even at very low doses

- TLC mobility after acid hydrolysis [3]: did not show altered TLC mobility
Compound: CCCCCCCCCCCCCCC[C@@H](O)C(=O)N[C@@H](CO[C@@H]1O[C@H](CO)[C@@H](O)[C@H](O)[C@H]1O)[C@H](O)/C=C/CC/C=C(\C)CCCCCCCCC [Cerebroside]
